These results are taken from patent publication US20100311714A1, “1H-IMIDAZO[4,5-c]QUINOLINONE COMPOUNDS” (priority 2009, published 2010).

Data set [1] in a line: Parallel Artificial Membrane Permeability Assay (PAMPA) at pH 6.8. It is filed as physicochemical. The essentials: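 PAMPA permeability measured at pH 6.8 following the Wohnsland and Faller method; value reported as log Pe.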
On the technique in general: PAMPA measures passive passage across an artificial lipid membrane.

The next data set has as its target T1, mTOR (Homo sapiens, UniProt P42345).
T1 construct: purchased Invitrogen Corporation (Carlsbad/Calif., USA) PV4753
The experiment in a line: Biochemical assay for m-TOR by TR-FRET. In short, it runs like this: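 mTOR (0.5 nM) phosphorylates GFP-4EBP1 (400 nM) with 8 μM ATP at rt in 50 mM HEPES pH 7.5, 10 mM MnCl2, 50 mM NaCl, 1 mM EGTA, 1 mM DTT; compounds 0.003–10 μM final. EDTA stop with Tb-anti-p4EBP1[pT46] antibody (0.5 nM); TR-FRET read after 15 min against no-enzyme and vehicle controls.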
(TR-FRET usually uses a lanthanide donor and a delayed reading to cut background.)

The subject of data set [2] is PKB Ser473 phosphorylation in Rat1-myr-HA-p110 alpha cells. The experiment in a line: Reverse protein array, PKB Ser473 phosphorylation in Rat1-myr-HA-p110 alpha cells. It counts as cell-based. To be noted: Rattus norvegicus, 0.5 h, 30 minutes compound incubation, read-out: p-PKB/IC50_alpha.
Data set [3] relates to PKB Ser473 phosphorylation in Rat1-myr-HA-p110 beta cells. The experiment in a line: Reverse protein array, PKB Ser473 phosphorylation in Rat1-myr-HA-p110 beta cells. It is filed as cell-based. As to conditions: Rattus norvegicus, 0.5 h, 30 minutes compound incubation, read-out: p-PKB/IC50_beta.

Where two headings read alike, the source gives them in different places.

T1 sequence (P42345 1360-2549 limits assumed): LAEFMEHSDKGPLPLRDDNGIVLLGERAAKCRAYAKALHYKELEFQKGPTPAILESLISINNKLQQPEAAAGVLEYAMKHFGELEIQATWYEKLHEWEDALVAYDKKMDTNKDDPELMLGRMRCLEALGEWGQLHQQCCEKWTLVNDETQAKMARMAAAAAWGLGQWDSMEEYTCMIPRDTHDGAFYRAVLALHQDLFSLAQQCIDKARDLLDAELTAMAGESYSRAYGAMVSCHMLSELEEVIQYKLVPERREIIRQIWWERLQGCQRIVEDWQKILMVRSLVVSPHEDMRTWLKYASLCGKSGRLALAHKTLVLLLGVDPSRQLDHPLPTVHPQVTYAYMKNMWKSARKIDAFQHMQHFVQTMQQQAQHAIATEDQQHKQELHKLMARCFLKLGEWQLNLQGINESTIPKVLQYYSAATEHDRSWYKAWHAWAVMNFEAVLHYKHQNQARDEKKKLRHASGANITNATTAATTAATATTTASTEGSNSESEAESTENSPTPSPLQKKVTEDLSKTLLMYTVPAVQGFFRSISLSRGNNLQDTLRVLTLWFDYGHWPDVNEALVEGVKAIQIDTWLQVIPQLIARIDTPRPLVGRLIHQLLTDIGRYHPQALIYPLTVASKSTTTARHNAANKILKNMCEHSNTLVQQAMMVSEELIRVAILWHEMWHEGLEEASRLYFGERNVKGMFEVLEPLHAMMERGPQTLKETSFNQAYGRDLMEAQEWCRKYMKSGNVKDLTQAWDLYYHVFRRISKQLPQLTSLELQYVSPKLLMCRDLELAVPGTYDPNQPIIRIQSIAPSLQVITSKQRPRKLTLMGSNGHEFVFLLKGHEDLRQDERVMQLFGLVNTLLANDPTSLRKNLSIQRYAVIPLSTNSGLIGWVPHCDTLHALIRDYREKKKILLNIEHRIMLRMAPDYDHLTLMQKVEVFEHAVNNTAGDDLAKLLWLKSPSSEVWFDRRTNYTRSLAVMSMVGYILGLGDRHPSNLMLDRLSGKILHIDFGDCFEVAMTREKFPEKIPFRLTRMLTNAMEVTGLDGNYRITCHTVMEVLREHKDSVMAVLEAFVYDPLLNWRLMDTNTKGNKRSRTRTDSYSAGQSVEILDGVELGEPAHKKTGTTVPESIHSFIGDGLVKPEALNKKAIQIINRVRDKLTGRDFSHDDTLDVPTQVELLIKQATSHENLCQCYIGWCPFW

`COc1ccc(-c2ccc3ncc4c(c3c2)n(-c2cccnc2OC)c(=O)n4C)cn1` [Example 1.1, 1-(2-Methoxy-pyridin-3-yl)-8-(6-methoxy-pyridin-3-yl)-3-methyl-1,3-dihydro-imidazo[4,5-c]quinolin-2-one]: the “HT-perm/logPe pH6.8” value in data set [1] is recorded as −3.6. The IC50 on mTOR (read-out: mTOR/IC50) worked out at 36 nM; in data set [2] it was 42.9 nM; in data set [3] it was 65 nM.

On to `COc1ncccc1-n1c(=O)n(C)c2cnc3ccc(-c4cnc(N)c(C(F)(F)F)c4)cc3c21` [Example 1.3, 8-(6-Amino-5-trifluoromethyl-pyridin-3-yl)-1-(2-methoxy-pyridin-3-yl)-3-methyl-1,3-dihydro-imidazo[4,5-c]quinolin-2-one], for which the “HT-perm/logPe pH6.8” value in data set [1] was −3.8. Besides, the figures for the IC50 (on mTOR (read-out: mTOR/IC50); in data set [2]; in data set [3]) were 9 nM, 6.94 nM and 13.9 nM, respectively.

In the case of `CNc1ccc(-c2ccc3ncc4c(c3c2)n(-c2cccnc2OC)c(=O)n4C)cn1` [Example 1.4, 1-(2-Methoxy-pyridin-3-yl)-3-methyl-8-(6-methylamino-pyridin-3-yl)-1,3-dihydro-imidazo[4,5-c]quinolin-2-one], in data set [1], the “HT-perm/logPe pH6.8” value is −3.9. The figures for the IC50 (on mTOR (read-out: mTOR/IC50); in data set [2]; in data set [3]) were 25 nM, 8.68 nM and 9.81 nM, respectively.

As to `CCOc1ccc(-c2ccc3ncc4c(c3c2)n(-c2cccnc2OC)c(=O)n4C)cn1` [Example 1.5, 8-(6-Ethoxy-pyridin-3-yl)-1-(2-methoxy-pyridin-3-yl)-3-methyl-1,3-dihydro-imidazo[4,5-c]quinolin-2-one], the “HT-perm/logPe pH6.8” value in data set [1] is −3.6. Further, the IC50 is 107 nM at mTOR (read-out: mTOR/IC50), 9.35 nM in data set [2] and 38.8 nM in data set [3].

Take `COc1ccc(-c2ccc3ncc4c(c3c2)n(-c2ncccc2C)c(=O)n4C)cn1` [Example 3.13, 8-(6-Methoxy-pyridin-3-yl)-3-methyl-1-(3-methyl-pyridin-2-yl)-1,3-dihydro-imidazo[4,5-c]quinolin-2-one]: the “HT-perm/logPe pH6.8” value in data set [1] is reported as −3.7. Also, the IC50 in data set [2] turned out to be 308 nM; in data set [3] it was 945 nM.

As to `Cc1nc(F)ccc1-n1c(=O)n(C)c2cnc3ccc(-c4cnc(N)c(CO)c4)cc3c21` [Example 7.17, 8-(6-Amino-5-hydroxymethyl-pyridin-3-yl)-1-(6-fluoro-2-methyl-pyridin-3-yl)-3-methyl-1,3-dihydro-imidazo[4,5-c]quinolin-2-one], the IC50 was 80 nM on mTOR (read-out: EPK_mTOR/IC50), 31.1 nM in data set [2] and 212 nM in data set [3].

In the case of `COc1ccc(-n2c(=O)n(C)c3cnc4ccc(-c5cnc(N)c(C(F)(F)F)c5)cc4c32)c(OC)n1` [Example 8.1, 8-(6-Amino-5-trifluoromethyl-pyridin-3-yl)-1-(2,6-dimethoxy-pyridin-3-yl)-3-methyl-1,3-dihydro-imidazo[4,5-c]quinolin-2-one], the “HT-perm/logPe pH6.8” value in data set [1] was −4.1. Further, the IC50 in data set [2] is 7.27 nM; in data set [3] it was 12.8 nM.

Regarding `COc1ccc(-n2c(=O)n(C)c3cnc4ccc(-c5ccc6nccn6c5)cc4c32)c(OC)n1` [Example 8.10, 1-(2,6-Dimethoxy-pyridin-3-yl)-8-imidazo[1,2-a]pyridin-6-yl-3-methyl-1,3-dihydro-imidazo[4,5-c]quinolin-2-one], the “HT-Perm logPe pH6.8” value in data set [1] is −3.9. Also, the IC50 on mTOR (read-out: EPK_mTOR/IC50) came out at 470 nM; in data set [2] it was 20.5 nM.

In the case of `COCCN(C)c1ccc(-n2c(=O)n(C)c3cnc4ccc(-c5cnc(CO)c(OC)c5)cc4c32)c(C)n1` [Example 15.9, 8-(6-Hydroxymethyl-5-methoxy-pyridin-3-yl)-1-{6-[(2-methoxy-ethyl)-methyl-amino]-2-methyl-pyridin-3-yl}-3-methyl-1,3-dihydro-imidazo[4,5-c]quinolin-2-one], the IC50 on mTOR (read-out: EPK_mTOR/IC50) is 119 nM; in data set [2], 10.8 nM; in data set [3], 40.4 nM.

With `Cc1cc(F)ncc1-n1c(=O)n(C)c2cnc3ccc(-c4cnc5c(ccn5C)c4)cc3c21` [Example 16.5, 1-(6-Fluoro-4-methyl-pyridin-3-yl)-3-methyl-8-(1-methyl-1H-pyrrolo[2,3-b]pyridin-5-yl)-1,3-dihydro-imidazo[4,5-c]quinolin-2-one], the “HT-Perm logPe pH6.8” value in data set [1] was −3.7. The IC50 on mTOR (read-out: EPK_mTOR/IC50) is 622 nM; in data set [2], 18.4 nM.

Take `CCNc1cc(-c2ccc3ncc4c(c3c2)n(-c2ccc(OC)nc2Cl)c(=O)n4C)cnc1C` [Example 18.1, 1-(2-Chloro-6-methoxy-pyridin-3-yl)-8-(5-ethylamino-6-methyl-pyridin-3-yl)-3-methyl-1,3-dihydro-imidazo[4,5-c]quinolin-2-one]: the “HT-Perm logPe pH6.8” value in data set [1] is given as −3.6. Besides, the IC50 at mTOR (read-out: EPK_mTOR/IC50) was 13 nM; in data set [2], less than 4.57 nM.

On to `COc1ccc(-n2c(=O)n(C)c3cnc4ccc(-c5cnc(N(C)C)nc5)cc4c32)c(Cl)n1` [Example 18.3, 1-(2-Chloro-6-methoxy-pyridin-3-yl)-8-(2-dimethylamino-pyrimidin-5-yl)-3-methyl-1,3-dihydro-imidazo[4,5-c]quinolin-2-one], for which the “HT-Perm logPe pH6.8” value in data set [1] is given as −3.5. Besides, the IC50 at mTOR (read-out: EPK_mTOR/IC50) amounted to 215 nM; in data set [2] it was 7.1 nM.

For the compound `CNc1ncc(-c2ccc3ncc4c(c3c2)n(-c2ccc(N(C)C)nc2C)c(=O)n4C)cn1` [Example 19.1, 1-(6-Dimethylamino-2-methyl-pyridin-3-yl)-3-methyl-8-(2-methylamino-pyrimidin-5-yl)-1,3-dihydro-imidazo[4,5-c]quinolin-2-one], the “HT-Perm logPe pH6.8” value in data set [1] is given as −3.9. Further, the IC50 at mTOR (read-out: EPK_mTOR/IC50) stood at 3 nM.

With `CCOc1ccc(-c2ccc3ncc4c(c3c2)n(-c2ccc(N(C)C)nc2C)c(=O)n4C)cn1` [Example 19.3, 1-(6-Dimethylamino-2-methyl-pyridin-3-yl)-8-(6-ethoxy-pyridin-3-yl)-3-methyl-1,3-dihydro-imidazo[4,5-c]quinolin-2-one], the “HT-Perm logPe pH6.8” value in data set [1] is listed as −4.4. Besides, the IC50 was determined as 6.8 nM in data set [2] and 14.2 nM in data set [3].

For the compound `CCOc1ccc(-c2ccc3ncc4c(c3c2)n(-c2ccc(NC(=O)COC)nc2C)c(=O)n4C)cn1` [Example 20.2, N-{5-[8-(6-Ethoxy-pyridin-3-yl)-3-methyl-2-oxo-2,3-dihydro-imidazo[4,5-c]quinolin-1-yl]-6-methyl-pyridin-2-yl}-2-methoxy-acetamide], the IC50 at mTOR (read-out: EPK_mTOR/IC50) is 154 nM; in data set [2], 50 nM; in data set [3] it was 210 nM.

On to `CNc1ncc(-c2ccc3ncc4c(c3c2)n(-c2ccc(NC(=O)COC)nc2C)c(=O)n4C)cn1` [Example 20.3, 2-Methoxy-N-{6-methyl-5-[3-methyl-8-(2-methylamino-pyrimidin-5-yl)-2-oxo-2,3-dihydro-imidazo[4,5-c]quinolin-1-yl]-pyridin-2-yl}-acetamide], for which the values for the IC50 (at mTOR (read-out: EPK_mTOR/IC50); in data set [2]; in data set [3]) were 59 nM, 6.6 nM and 16.3 nM, respectively.

On to `CNc1ccc(-c2ccc3ncc4c(c3c2)n(-c2ccc(NC(=O)COC)nc2C)c(=O)n4C)cn1` [Example 20.4, 2-Methoxy-N-{6-methyl-5-[3-methyl-8-(6-methylamino-pyridin-3-yl)-2-oxo-2,3-dihydro-imidazo[4,5-c]quinolin-1-yl]-pyridin-2-yl}-acetamide], for which the IC50 was 11 nM at mTOR (read-out: EPK_mTOR/IC50), 5.6 nM in data set [2] and 9.5 nM in data set [3].

Take `COCC(=O)Nc1ccc(-n2c(=O)n(C)c3cnc4ccc(-c5cncc(OC(C)C)c5)cc4c32)c(C)n1` [Example 20.5, N-{5-[8-(5-Isopropoxy-pyridin-3-yl)-3-methyl-2-oxo-2,3-dihydro-imidazo[4,5-c]quinolin-1-yl]-6-methyl-pyridin-2-yl}-2-methoxy-acetamide]: the IC50 came out at 900 nM on mTOR (read-out: EPK_mTOR/IC50), 90.2 nM in data set [2] and 167 nM in data set [3].

Turning to `COCCOc1ccc(-n2c(=O)n(C)c3cnc4ccc(-c5cncc(N6CCC6)c5)cc4c32)c(C)n1` [Example 22.2, 8-(5-Azetidin-1-yl-pyridin-3-yl)-1-[6-(2-methoxy-ethoxy)-2-methyl-pyridin-3-yl]-3-methyl-1,3-dihydro-imidazo[4,5-c]quinolin-2-one], the IC50 on mTOR (read-out: EPK_mTOR/IC50) was 21 nM; in data set [2], 6.4 nM; in data set [3], 32.1 nM.

Regarding `COCCOc1ccc(-n2c(=O)n(C)c3cnc4ccc(-c5cnc(COC)c(OC)c5)cc4c32)c(C)n1` [Example 22.3, 1-[6-(2-Methoxy-ethoxy)-2-methyl-pyridin-3-yl]-8-(5-methoxy-6-methoxymethyl-pyridin-3-yl)-3-methyl-1,3-dihydro-imidazo[4,5-c]quinolin-2-one], the IC50 came out at 140 nM at mTOR (read-out: EPK_mTOR/IC50), 24.2 nM in data set [2] and 77.6 nM in data set [3].

Consider `CCNc1cc(-c2ccc3ncc4c(c3c2)n(-c2ccc(N3CC(F)(F)C3)nc2C)c(=O)n4C)cnc1CO` [Example 24.3, 1-[6-(3,3-Difluoro-azetidin-1-yl)-2-methyl-pyridin-3-yl]-8-(5-ethylamino-6-hydroxymethyl-pyridin-3-yl)-3-methyl-1,3-dihydro-imidazo[4,5-c]quinolin-2-one], for which the IC50 on mTOR (read-out: EPK_mTOR/IC50) was less than 3 nM; in data set [2], 5.9 nM; in data set [3] it was less than 4.57 nM.

On to `Cc1nc(C(C)(C)O)ccc1-n1c(=O)n(C)c2cnc3ccc(-c4cncc(OC(C)C)c4)cc3c21` [Example 31.9, 1-[6-(1-Hydroxy-1-methyl-ethyl)-2-methyl-pyridin-3-yl]-8-(5-isopropoxy-pyridin-3-yl)-3-methyl-1,3-dihydro-imidazo[4,5-c]quinolin-2-one], for which the “HT-Perm logPe pH6.8” value in data set [1] is listed as −3.8. Besides, the IC50 at mTOR (read-out: EPK_mTOR/IC50) turned out to be 139 nM.
